# Laboratory results as given in a melting point compilation (Tetko et al.; mined from patent text by program, amines drawn as free bases though some values may be those of a salt).
row,Compound,melting point [°C]
1,CN(C(CCN1C(=O)CNC1=O)C(=O)NO)S(=O)(=O)c1ccc(Oc2ccccc2)cc1 (stereo not given),146 to 147
2,O=C1NC(=O)c2c1c(-c1ccccc1)cc1c2c2cc(O)ccc2n1CCn1ccnc1,> 345
3,CCCCCCCCCCCN=C=O,109 to 110
4,Cc1nc2nc(C(F)(F)F)cc(-c3cccnc3)n2n1,195 to 197
5,CC(C)(C)OC(=O)Nc1cc(N2CCOCC2)c(C#Cc2ccccc2)cc1N,174 to 176
6,Nc1ccc2[nH]c(=O)cc(CCN3CCC(c4c[nH]c5ccccc45)CC3)c2c1,214 to 216
7,COc1ccc(-c2coc(-c3ccc(C(=O)O)cc3)n2)cc1,286 to 287
8,CN(c1n[nH]c2ncnc(Nc3cccc(Cl)c3)c12)C1CCCCC1,188 to 190
9,CCCCCCCCC#CCC#CCC#CCSCC(=O)NCCO,77
10,CC(=O)NC[C@H]1CN(c2cc(F)c3c(c2)CCCCC3=O)C(=O)O1,151 to 152
11,COc1ccc(S(=O)(=O)N(CCC(F)(F)F)c2ccccc2/C=C/c2ccncc2)cc1,124 to 126
12,COP(=O)(Cc1c(Cl)c(Cl)c(CP(=O)(OC)OC)c(Cl)c1Cl)OC,179 to 181
13,O=c1c([N+](=O)[O-])c(O)c2cccnc2n1Cc1ccccc1,182
14,CCOC(=O)/C=C/c1ccc(O)c(Cl)c1,104 to 106
15,CNC(=O)Oc1ccc(NC(=O)C(F)(F)Cl)c(C)c1,156 to 158
16,CC1CCC2Oc3ccc(Cl)cc3C(=O)N2O1 (stereo not given),210 to 213
17,Nc1nsc2nc3ccccc3n12,255 to 256
18,COC=C(C(=O)OC)c1ccc(CC(=O)O)cc1,81 to 84
19,CCCc1nc(Br)c(C(=O)O)n1Cc1ccc(-c2ccccc2S(=O)(=O)NC(=O)NCc2ccccc2)cc1,128
20,CCCS(=O)(=O)c1ccc(NC(=O)CCCCCCCCCC=C(F)F)cc1,67 to 70
21,COc1ccccc1CNc1cccnc1-c1ccccc1,122 to 125
22,O=[N+]([O-])c1nccn1CC(F)CO (stereo not given),84 to 89
23,CC(C)(C)c1ccc(-c2nc(NC(=O)C3CCCC3)sc2-c2ccncc2)cc1,309 to 311
24,O=C(O)COc1ccc(F)cc1C(=O)NCc1ccc(Br)cc1F,145 to 146
25,Cc1ccc(C)n1-c1cc(F)c(C2=CCSCC2)c(F)c1,118 to 119

row,Compound,melting point [°C]
1,CC12CC(C)(C1)C(=O)N(C(C)(C)C)C2=O,65 to 65.5
2,CC(C)c1cccc(C(C)C)c1NC(=O)CN1CN(c2ccccc2)C2(CCCCC2)C1,151 to 153
3,Nc1cccc(Sc2cccc3c2C(=O)c2cccc(Sc4cccc(N)c4)c2C3=O)c1,292 to 293
4,O=[N+]([O-])c1cc(NCc2c(F)c(F)c(C(F)(F)F)c(F)c2F)ccc1O,126 to 128
5,O=Cc1ccc(-c2ccc(-c3ccco3)o2)o1,75 to 77
6,COc1ccc([C@]2(c3ccc(F)c(-c4cncnc4)c3)N=C(N)N(C)C2=O)cc1C,115
7,CSc1ncc2n1-c1ccc(Cl)cc1C(c1ccccc1F)=NC2,180 to 181
8,COc1ccc(C(=O)Nc2ccccc2)cc1NS(=O)(=O)c1cccc2cccnc12,187 to 188
9,Cc1ccnc(N2CCN(CCc3c(C)n4c5c(cc(C(O)C(C)C)cc35)CCC4)CC2)c1 (stereo not given),140
10,CN(C)CCNc1ncc(-c2ccccc2)c(C(=O)N(C)Cc2cc(C(F)(F)F)cc(C(F)(F)F)c2)n1,108 to 110
11,COc1ccc(CCl)cc1OCc1nc(-c2ccco2)oc1C,115 to 116
12,CC(C)(OCc1n[nH]c2ccc([N+](=O)[O-])cc12)C(=O)O,210
13,CC#CCOc1ccc(SC(C(=O)NO)c2ccc3ccccc3c2)cc1 (stereo not given),148
14,N#CC1OC(COC(=O)c2ccccc2)C(OC(=O)c2ccccc2)C1OC(=O)c1ccccc1 (stereo not given),77 to 78
15,COC(=O)C[C@H](O)C[C@H](O)C=Cc1c(-c2ccc(F)cc2)c(-c2ccc(F)cc2)c(C(=O)Nc2ccc(S(N)(=O)=O)cc2)n1C(C)C,208 to 210
16,CCCCNC(=O)Oc1ccc(C(O)(CC)c2cccc(C(F)(F)F)c2)c(OC(=O)NCCCC)c1 (stereo not given),110 to 111
17,CC1CCCN(C(=O)C2Cc3ccc(F)cc3N2c2ccc(=O)n(C)n2)C1 (stereo not given),219 to 222
18,O=C(O)C1=Cc2cc(-c3cccs3)ccc2OC1C(F)(F)F (stereo not given),209 to 212
19,CC(C)NC(=O)N1CCC(CN2C(=O)C3(COc4cc5c(cc43)CCO5)c3ccccc32)C1 (stereo not given),107 to 115
20,COc1ccc(-c2nc3n(c2-c2ccncc2)CCC3)cc1,158
21,O=c1nc(O)ccc2ccccc12,129 to 131
22,CC(Oc1cccnc1)C(=O)Nc1ccc(C(=O)Nc2ccccc2N)cc1 (stereo not given),193 to 196
23,CN(C)CCn1c(=O)c(=NO)nc(-c2ccccc2)c2ccccc21,232 to 234
24,NCCC1Cc2ccc(C3=NNC(=O)CC3)cc2C1 (stereo not given),189 to 190
25,COC(=O)c1cc(OC)c(O)c(C23CC4CC(CC(C4)C2)C3)c1,179

row,Compound,melting point [°C]
1,Cn1c(-c2ccc3ccccc3c2)n[nH]c1=S,223 to 225
2,CCOC=Nc1noc(-c2cc(C(C)(C)C)c(O)c(C(C)(C)C)c2)n1,159 to 161
3,Cn1c(=O)c2c(Oc3cccc(Cl)c3)cccc2n2cnc(-c3noc(C4CC4)n3)c12,201 to 203
4,O=C(N[C@H]1CCN(Cc2ccccc2)C[C@H]1O)c1ccccc1O (relative stereo),127
5,COc1ccc(C(=O)C2CCCCC2C(=O)O)cc1OC (stereo not given),171 to 175
6,CCCCCc1cccc2c1C(=O)N(OC1C(O)C(CO)OC1n1cnc3c(N)ncnc31)C2=O (stereo not given),159 to 160
7,Cn1nc(Nc2cc(-c3ccc(F)c(-c4c(C(N)=O)sc5c4C(O)C(C)(C)C5)c3)nn(C)c2=O)cc1CN1CCC1 (stereo not given),110 to 111
8,CCOC(=O)c1sccc1S(=O)(=O)NC(=O)Nc1nc(C)nc(OC)n1,166
9,CC(C)(C)OC(=O)N[C@@H]1CN[C@H]2CCO[C@H]21 (relative stereo),110 to 111
10,COCCSc1cc2c(N3CCc4ccc(Cl)cc43)ncnc2cc1Cl,104 to 106
11,CC1(C)CCOc2cc(C(=O)Nc3ccc(C(=O)O)cc3)ccc21,279 to 281
12,O=C(O)Cc1cccc2c(-c3ccc([N+](=O)[O-])cc3)nccc12,252 to 254
13,CCNC(=O)Nc1c(C(=O)c2ccccc2)[nH]c2cc(Cl)ccc12,222 to 235
14,CN1CCN(S(=O)(=O)c2ccc3c(c2)C(=O)c2ccccc2C3=O)CC1,216 to 218
15,CC(=O)O[C@@H]1OCC[C@@H]1NC(=O)[C@H](CC(C)C)NS(=O)(=O)c1ccc(N)cc1,189 to 190
16,CCOC(=O)COc1ccc(-c2cc(O)c(SCCc3ccccc3)c(=O)o2)cc1,169 to 171
17,COc1ccc(NC(=O)/C=C/c2c(F)c(F)c(F)c(F)c2F)cc1[N+](=O)[O-],265 to 266
18,COC(=O)c1cnccc1NC(=O)C(C)CSC(C)=O (stereo not given),55 to 57
19,O=C(O)CCCN(C(=O)c1cccc(C(F)(F)F)c1)c1cccc2ccccc12,128 to 129
20,CCc1ccc2nc(-c3ccc(-c4ccccc4)cc3)c(N)c(C(=O)O)c2c1,240 to 241
21,Cc1cc(C)cc(Sc2cc(=O)[nH]c(C)c2CO)c1,268 to 270
22,COc1cc2nc(N3CCN(C(=O)C4CCc5ccccc5O4)CC3)nc(N)c2cc1OC (stereo not given),165 to 167
23,COc1ccc2c(c1)CCC1(C)CC(=O)NN=C21 (stereo not given),215
24,COCc1ccc(C[C@@H]2O[C@H](COC(C)=O)[C@@H](OC(C)=O)[C@H](OC(C)=O)[C@H]2OC(C)=O)cc1,120 to 122
25,COC(=O)c1nc(Oc2ccccc2)c(Cl)c(N)c1Cl,88 to 90

row,Compound,melting point [°C]
1,O=[N+]([O-])c1cccc2cc(-c3ccccc3)cnc12,112 to 114
2,O=C(Nc1ccc(C(F)(F)F)cc1)C12CC3CC(CC(C3)C1)C2,189 to 193
3,COC(=O)N(O)c1cccnc1Oc1ccccc1,140
4,COC(=O)c1cccc(F)c1OC,99 to 101
5,c1ccc2nc(N3CCNCC3)c(OCCOc3cncnc3)nc2c1,115 to 117
6,Cc1cc2c(cc1C1=NNC(=O)CC1C)NC(=O)CO2 (stereo not given),163 to 166
7,c1ccc(C2=N[C@@H](CCP(c3ccccc3)c3ccccc3)CO2)cc1,52.5 to 54
8,CCCc1[nH]c(C)c(C(C)=O)c1C,157 to 158
9,COC(=O)c1c[nH]c(-c2ccc(OC[C@@H](O)CNC(C)(C)C)cc2)n1,168 to 172
10,Cc1ccc(Cc2cnc(NCC(O)COc3cccc(CN4CCCCC4)c3)[nH]c2=O)cn1 (stereo not given),115 to 117
11,COc1cc2c(cc1-c1cccnc1)-c1c(C3=CCOCC3)c3c(n1CC2)C(=O)N(C(C)(C)C)CCCC3,208 to 210
12,OCc1cccc(Cc2c[nH]cn2)c1O,152 to 155
13,N#Cc1ccc(-c2ccc(C(=O)NCCCCN3CCC(c4ccc5ccccc5c4O)CC3)cc2)cc1,135 to 140
14,O=C1C=C(C2CCCCNC2=O)CCC1 (stereo not given),159 to 165
15,O=CC1(c2ccc(Br)cc2)CC=CO1 (stereo not given),154
16,Cc1nc2cc(Nc3nccc(-c4ccc(N5CCNCC5)nc4)n3)ccc2s1,209 to 211
17,CN(C)S(=O)(=O)CCc1ccccc1S(N)(=O)=O,134 to 136
18,CCCCCCCCCCCCCCCCCCOC(=O)P(=O)(O)O,81 to 82
19,CC(C)(C)NC(=O)N1CCn2c(Br)c(-c3cccc(F)c3)c(C(N)=O)c2C1,184 to 189
20,O=c1[nH]cc(-c2cc(-c3cnc4ccccc4c3)ccn2)n1-c1ccc(N2CCNCC2)c(C(F)(F)F)c1,155
21,Cc1cc2c(Oc3ccccc3Cl)cccc2[nH]1,138 to 140
22,C#CCCc1cc2ccc(C(=O)OC)cc2o1,68 to 69
23,CC(C)=C(c1ccc(C(=O)O)cc1)c1ccc2c(c1)C(C)(C)CCC2(C)C,204 to 206
24,O=C1Nc2ccc(-c3cc(F)cc(Br)c3)cc2C(C2CC2)(C2CC2)O1,228 to 229
25,O=C1NCCN1c1cn(-c2cccnc2)nc1Cl,167 to 170
